# Experimental data from a melting point compilation (Tetko et al.; mined from patent text by program, amines drawn as free bases though some values may be those of a salt).
row,melting point [°C],Structure (SMILES)
1,143 to 145,CC(C)(C)c1ccc(CCC(CC2CCCCC2)OC(=O)OCC(=O)O)cc1NC(=O)CC1c2ccccc2Oc2ccccc21 (configuration not stated)
2,178 to 180,CC(C)COc1ccc(C(=O)N/C(=C\c2ccc(C(C)C)cc2)C(=O)NCCO)cc1
3,> 300,O=C(Nc1ccccc1)Nc1cccc(Nc2ncnc3[nH]cc(C(=O)c4ccccc4)c23)c1
4,265 to 270,CCOC(=O)c1c[nH]c2ccc(Cc3ccccc3)cc2c1=O
5,158,CC1(C)CCCN(C(=O)c2ccccc2NC(=O)CN2C(=O)c3ccccc3C2=O)C1
6,124 to 126,O=C(Nc1ccccc1-c1ccc(Cl)cc1F)c1cccnc1Cl
7,191 to 192,O=C(Nc1ccc(CCNc2ncccn2)cc1)c1cccs1
8,176 to 178,O=c1ccc(Cl)cn1[C@@H]1c2ccccc2OCC[C@H]1O (relative stereo)
9,180 to 181,O=C(NCc1ccccc1)c1ccnc(NC(=O)c2cc(F)ccc2Cl)c1
10,150 to 151,CC(C)(CC(C)(c1ccc(O)cc1)c1ccc(O)cc1)c1ccc(O)cc1
11,171 to 174,COCCc1nc2c(N)nc3ccccc3c2n1CCOCCN(C(N)=O)c1ccccc1
12,153 to 157,CCn1c(C(C)NS(=O)(=O)c2ccc(Cl)c(Cl)c2)cnc1Oc1ccc(Cl)cc1 (configuration not stated)
13,265 to 267,O=C1NC(=O)c2c1cc1ccc3c(c1c2-c1ccc(OCc2ccccc2)cc1)OCO3
14,235 to 236,COc1ccc(CCNC(=O)C(=O)NCc2ccc(NC(C)=O)cc2)cc1OC1CCCC1
15,92 to 93,COc1ccc(CCNS(=O)(=O)c2ccc([N+](=O)[O-])cc2)cc1
16,137 to 139,CC(C)CCOc1c(-c2ccc(S(N)(=O)=O)cc2)cnn(-c2cccc(Cl)c2)c1=O
17,269 to 271,CCOC(=O)c1cc(/C=C/c2ccc(O)cc2)ccc1O
18,116 to 118,Cn1c2ccccc2c2c3ccccc3ccc21
19,166 to 168,O=C(O)c1cc2cccc(OCc3ccccc3)c2[nH]1
20,143 to 144,CCN1C(=O)C(C)(C)C(=O)N(C)c2cc(CN(CCn3c(=O)ccc4ccccc43)Cc3ccc(OC)nc3C)ccc21
21,207 to 209,CCNc1nc(C)c(-c2ccnc(Nc3ccc(N4CCSCC4)cc3)n2)s1
22,215 to 220,O=C1CC2Sc3nc(=O)c4ccccc4n3C2(c2ccc(Cl)cc2)O1 (configuration not stated)
23,215 to 225,COc1cc2c(cc1OC)CN(CCc1ccc(NC(=O)c3cccc4c(=O)c5cccc(OC)c5[nH]c34)cc1)CC2
24,173 to 175,CC(=O)Nc1ccc(OCC2CO2)c(-c2nnco2)c1 (configuration not stated)
25,176 to 177,CS(=O)c1nnc2n1C=Cc1ccccc1C2 (configuration not stated)

row,melting point [°C],Structure (SMILES)
1,176 to 178,CCOC(=O)Cc1sc(S)nc1-c1ccc(Cl)cc1
2,180,CC(=O)OCc1cc(=O)c(Oc2ccc(F)cc2)c(-c2ccc(S(C)(=O)=O)cc2)o1
3,134 to 135,O=C(OCC(=O)c1ccc(C(F)(F)F)cc1)Oc1ccccc1
4,240 to 243,CC(C)c1cc(C(=O)Nc2ccc3[nH]c(C(=O)O)cc3c2)oc1C(C)C
5,83 to 88,CC(C)C[C@H](NC(=O)CCC(=O)c1ccccc1)C(=O)N[C@@H](C(C)C)[C@@H](O)c1c(-c2ccccc2)c1=O
6,135 to 137,Cc1ccc(S(=O)(=O)NCCN(C(=O)c2ccccc2C(=O)c2ccccc2)C(C)C)cc1
7,104 to 110,FC(F)(F)c1ccc(Oc2ccc3c(c2)OCC(c2ccccc2)O3)nc1 (configuration not stated)
8,172 to 174,COCCOc1ccc2c(c1)OCC21C(=O)Nc2ccccc21 (configuration not stated)
9,154 to 156,COc1c(C)c(C)cc(C)c1C(O)(c1ccc(C(C)C)cc1)C1CCN(Cc2ccccc2)CC1 (configuration not stated)
10,> 245,CN1CCN(Cc2ccc(-c3cc4c(Nc5ccc6[nH]ccc6c5)c(C#N)cnc4s3)nc2)CC1
11,229 to 231,CN1C2CCCC1CC(NC(=O)c1cccc3nc(-c4ccc(F)cc4)oc13)C2 (configuration not stated)
12,141 to 143,COc1ccc(NC2(C(N)=O)CCOCC2)cc1
13,151 to 152,CCCCc1ncc(CNC(Cc2cccs2)C(=O)O)n1Cc1ccc(C(=O)O)cc1 (configuration not stated)
14,88,CC(C)C[C@H](NC(=O)N1CCN(c2ccccc2)CC1)C(=O)OCc1ccccc1
15,86 to 93,N=C(Cc1ccc(F)cc1)Nc1ncccc1OCc1ccccc1
16,179 to 180,CCOC(=O)C(C#N)=Cc1c(Cl)n(Cc2ccc(Cl)cc2)c2ccccc12
17,245 to 247,O=C1c2cc(O)ccc2OCC1n1ccnc1 (configuration not stated)
18,209 to 212,Cc1ccc(NC(=O)c2ccc(O)c([N+](=O)[O-])c2)cc1C
19,140 to 142,Cc1c(SCCCn2c([N+](=O)[O-])cnc2C)ccnc1CSc1ccncc1
20,111 to 113,CN(CCN(O)C(N)=O)Cc1cccc(Oc2cc(Cl)cc(Cl)c2)c1
21,206 to 207,Sc1nccn1Cc1ccccc1Cl
22,194,O=C1Nc2ccccc2C2(c3ccccc3)OCCN12 (configuration not stated)
23,148 to 149,Cc1nc(-n2cc(C(F)(F)F)ccc2=O)sc1C(=O)NCc1ccccc1
24,167 to 168,C#CCOc1ccc2c(c1)c(-c1ccc(C(C)C)cc1)nc(=O)n2Cc1cccc([N+](=O)[O-])c1
25,200 to 202,OCc1cccc(-c2ccc3nc(-c4ccc(Cl)cc4)cn3c2)c1F

# The next lines start with the compound.
row,Structure (SMILES),melting point [°C]
1,CC(C)C(=O)c1cc(O)c(O)c([N+](=O)[O-])c1,98 to 99
2,CCc1c(Cl)ccc2c1C=C(C(=O)O)C(C(F)(F)F)O2 (configuration not stated),172
3,NC(=O)c1cc(O)c(O)cc1N,> 300
4,Cn1cc(-c2cc(Oc3ccccc3)c(Cl)cc2F)c(=O)cc1C(F)(F)F,159 to 161
5,O=S(=O)(c1cnn(-c2c(Cl)cc(C(F)(F)F)cc2Cl)c1Br)C(F)(F)F,90 to 91
6,O=[N+]([O-])C=C1CN=C(c2ccccc2F)c2cc(I)ccc2N1,214 to 216
7,O=C1CC(=O)C(CCCCCCCO)C1=O (configuration not stated),121 to 124
8,N=C(N)COc1cccc(Cl)c1Cl,104 to 108
9,CCc1cn(C2OC(CNC(=O)C(C)Oc3c(Cl)cc(Cl)c(OC)c3Cl)C(O)C2F)c(=O)[nH]c1=O (configuration not stated),210 to 211
10,COC(=O)c1cc(Cl)ncc1[N+](=O)[O-],60.5 to 64.1
11,C=CC[C@H]1CC(C(=O)OC)=C[C@H](N=[N+]=[N-])[C@H]1OS(C)(=O)=O,70 to 72
12,O=C(O)/C=C/n1cnc2ccc(C3CC3)cc2c1=O,291 to 293
13,C=CCOc1cc(NCC)c(C(C)=O)cc1C(C)=O,82 to 83
14,O=C(NCCC1=CCCCC1)NCCC1=CCCCC1,129 to 131
15,CCCOc1ccccc1-c1nc2cc(N)c(N)cc2c(=O)[nH]1,195 to 197
16,Cc1cc(Cl)ccc1N=C1NCCN1,137 to 138
17,CC(=O)Oc1cccc2c1CC(=O)N2C,109 to 111
18,CSC(C#N)NC(=O)c1cccc(Cl)c1 (configuration not stated),115 to 117
19,COc1cccc(OC(=O)N2CCCC2=O)c1,45 to 47
20,COc1cc(C(=O)NC2CCN(CC(F)(F)F)CC2)ccc1Nc1ncc2c(n1)N(C1CCCCC1)CC(F)(F)C(=O)N2C,213 to 215
21,C[C@@H]1OC(=O)C2=C[C@H]3CCCC[C@@H]3[C@@H](O)[C@H]21,191 to 193
22,CCOC(=O)C(N)C=CCP(=O)(O)O (configuration not stated),167 to 168
23,CCOC1CCC2(CC1)NC(=O)C(c1cc(Br)ccc1C)=C2O (configuration not stated),138
24,Fc1cccc2c1CN(C1=NCCO1)C2,125 to 129
25,COc1cc2nc(N)nc(-c3cccc(Br)c3)c2cc1OC,246 to 249
26,CCOP(=S)(OCC)ON=C1C=CC(=C(C#N)c2ccccc2)C=C1,66 to 82

row,Structure (SMILES),melting point [°C]
1,CC(Cl)C(CC(=O)c1ccccc1)[N+](=O)[O-] (configuration not stated),115 to 117
2,Fc1cccc(NC2CN([C@H]3CC[C@@H](c4c[nH]c5ccc(F)cc54)CC3)C2)c1,67 to 70
3,O=C(O)Cc1onc(O)c1Br,167
4,CCC1=C(c2cccc(F)c2)C(=O)N(c2ccc(Cl)c(C(F)(F)F)c2)C1,126 to 129
5,CC1(C)Oc2ccc([N+](=O)[O-])cc2C(n2ccccc2=O)=C1CNC(=O)C(F)(F)F,189
6,CC(=O)c1cc(Nc2nc(N)nc(N)n2)cc(C(C)=O)c1,271 to 272
7,CC1Cc2ccc(Cl)cc2CN(CCO)C1=O (configuration not stated),139 to 140
8,COc1ccccc1C1C2CCC(C2)C12CCC(=O)N2 (configuration not stated),260
9,COc1cc(C=CC#N)cc(OC)c1,126
10,CN(C(=O)CCCOc1ccc2nc3[nH]c(=O)n(C)c3cc2c1)C1CCCCCC1,234 to 236
11,CC(C#N)c1ccc(O)c(N)c1 (configuration not stated),110 to 112
12,COc1cc(C(F)(F)F)c2[nH]c3c(c2c1)CNCC3,140 to 144
13,COC(=O)c1[nH]c(C)c(C)c1O,170 to 172
14,O=C1c2cccc3cc4ccccc4c(c23)C(=O)N1CCCNCCCNCCCN1C(=O)c2cccc3cc4ccccc4c(c23)C1=O,140
15,Cc1cc2c(c(C)c1Br)C(=O)C(C)(C)O2,63 to 64
16,CCCOc1c(-c2cc(C=CC(=O)O)ccc2OC)cc(C(C)(C)C)cc1C(C)(C)C,107 to 109
17,CCOC(=O)c1ncc(Cl)cc1NC(C)=O,98 to 100
18,CCSC(=O)c1c(C(F)(F)F)nc(C(F)F)c(C(=O)OC)c1NC(C)C,56 to 59
19,COCOc1cccc(ON=C(C)C)c1C#N,62 to 64
20,CN(Cc1ccc(S(C)(=O)=O)c(S(N)(=O)=O)c1)S(C)(=O)=O,165 to 169
21,CN1CCC(O)(c2ccccc2N)CC1,135 to 136
22,CNc1cc(F)ccc1C(=O)CSC,61.5 to 63
23,O=S(=O)(/C=C/c1ccc(F)cc1)CS(=O)(=O)/C=C/c1ccc(F)cc1,183 to 185
24,c1ccc2c(c1)CCCC2N1CCCNCC1 (configuration not stated),107 to 109
25,CCOC(=O)c1c(C)cc2c(c1C)c(=O)n(-c1ccccc1Cl)c(=O)n2CC(=O)N(CC)CC,228 to 229
26,O=C(O)C(Cl)(Cl)CCCCCCCCCCCCCCBr,61 to 63
